Some results are limits rather than exact numbers.

In general, IC50 refers to the concentration that inhibits the measured activity by half. A high value points to lower potency.

For the assay, the target named is T1, hERG current (Homo sapiens, UniProt Q12809).
T1 construct: expressed in transfected cells; host or cells: CHO-K1 cells expressing hERG (Persson et al., J. Cardiovasc. Electrophysiol. 16, 329-341, 2005)
The assay is described as follows: hERG analysis Method 2 (IonWorks HT, CHO cells). As to conditions: hERG-expressing CHO cells, ~21° C., 8-point non-cumulative curves. It is filed as cell-based. The method, then: The hERG-expressing Chinese hamster ovary K1 (CHO) cells described by (Persson, Carlsson, Duker, & Jacobson, 2005) are grown to semi-confluence at 37° C. in a humidified environment (5% CO2) in F-12 Ham medium containing L-glutamine, 10% foetal calf serum (FCS) and 0.6 mg/mL hygromycin (all available from Sigma-Aldrich). Prior to use, the monolayer is washed using a pre-warmed (37° C.) 3 mL aliquot of Versene 1:5,000 (Invitrogen). After aspiration of this solution the flask is incubated at 37° C. in an incubator with a further 2 mL of Versene 1:5,000 for a period of 6 minutes. Cells are then detached from the bottom of the flask by gentle tapping and 10 mL of Dulbecco's Phosphate-Buffered Saline containing calcium (0.9 mM) and magnesium (0.5 mM) (PBS; Invitrogen) is then added to the flask and aspirated into a 15 mL centrifuge tube prior to centrifugation (50 g, for 4 mins). The resulting supernatant is discarded and the pellet gently re-suspended in 3 mL of PBS. A 0.5 mL aliquot of cell suspension is removed and the number of viable cells (based on trypan blue exclusion) is determined in an automated reader (Cedex; Innovatis) so that the cell re-suspension volume can be adjusted with PBS to give the desired final cell concentration. It is the cell concentration at this point in the assay that is quoted when referring to this parameter. […]
A general note: hERG is a cardiac potassium channel; its block is linked to QT prolongation.

T1 sequence (Q12809 whole entry): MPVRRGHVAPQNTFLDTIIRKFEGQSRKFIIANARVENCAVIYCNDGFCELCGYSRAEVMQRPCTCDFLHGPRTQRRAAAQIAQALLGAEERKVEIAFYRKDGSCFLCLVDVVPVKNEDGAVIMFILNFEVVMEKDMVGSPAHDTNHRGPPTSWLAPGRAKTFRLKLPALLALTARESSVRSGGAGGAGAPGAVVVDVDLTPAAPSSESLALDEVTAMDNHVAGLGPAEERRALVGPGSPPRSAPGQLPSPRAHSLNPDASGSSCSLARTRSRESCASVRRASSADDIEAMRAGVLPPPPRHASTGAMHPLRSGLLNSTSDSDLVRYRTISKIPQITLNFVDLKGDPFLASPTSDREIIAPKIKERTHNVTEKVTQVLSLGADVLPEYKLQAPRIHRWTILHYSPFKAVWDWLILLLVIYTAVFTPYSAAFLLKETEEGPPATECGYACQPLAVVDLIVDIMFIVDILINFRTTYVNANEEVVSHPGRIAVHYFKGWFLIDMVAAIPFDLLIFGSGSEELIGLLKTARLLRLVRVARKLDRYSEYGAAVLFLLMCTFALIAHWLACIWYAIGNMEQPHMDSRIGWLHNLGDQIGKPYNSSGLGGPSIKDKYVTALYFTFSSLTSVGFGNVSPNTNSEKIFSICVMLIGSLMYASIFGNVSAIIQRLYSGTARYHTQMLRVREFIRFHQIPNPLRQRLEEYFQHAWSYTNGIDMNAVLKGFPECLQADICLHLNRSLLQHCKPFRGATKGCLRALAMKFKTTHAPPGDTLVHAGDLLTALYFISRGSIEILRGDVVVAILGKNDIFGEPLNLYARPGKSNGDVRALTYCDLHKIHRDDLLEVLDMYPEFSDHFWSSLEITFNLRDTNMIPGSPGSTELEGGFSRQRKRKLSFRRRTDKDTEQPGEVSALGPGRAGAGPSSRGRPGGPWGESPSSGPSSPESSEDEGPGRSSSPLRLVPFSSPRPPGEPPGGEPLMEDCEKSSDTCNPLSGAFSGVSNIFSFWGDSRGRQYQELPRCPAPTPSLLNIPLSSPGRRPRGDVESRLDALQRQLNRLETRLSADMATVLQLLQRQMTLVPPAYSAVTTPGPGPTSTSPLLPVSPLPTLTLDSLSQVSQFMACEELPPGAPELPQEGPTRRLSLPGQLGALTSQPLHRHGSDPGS

Compound `CCCCCNc1nc(N)nc(C)c1Cc1ccc(N2CCN(C)CC2=O)cc1OC` [Example 2, 1-(4-{[2-Amino-4-methyl-6-(pentylamino)pyrimidin-5-yl]methyl}-3-methoxyphenyl)-4-methylpiperazin-2-one] returned an IC50 of 5.41 µM. Turning to `CCC[C@@H](CCO)Nc1nc(N)nc(C)c1Cc1ccc(N2CCN(C)CC2=O)cc1OC` [Example 3, (S)-1-(4-{[2-Amino-4-(1-hydroxyhexan-3-ylamino)-6-methylpyrimidin-5-yl]methyl}-3-methoxyphenyl)-4-methylpiperazin-2-one], the IC50 was over 33 µM.

(Values after patent US20130267532A1, “CYCLIC AMIDE COMPOUNDS AND THEIR USE IN THE TREATMENT OF DISEASE” (priority 2010, published 2013).)
